Measurements reported in patent publication US7517998B2, “Non nucleoside reverse transcriptase inhibitors” (priority 2004, dated 2009).

Molecular target: T1, K103NNY181C mutant reverse transcriptase (Human immunodeficiency virus type 1 group M subtype B, UniProt P04585, K690N/Y768C)
T1 construct: mutations that occur in the reverse transcriptase segment of the pol gene
Experiment: Reverse transcriptase enzymatic assay (PicoGreen), K103N/Y181C mutant RT
Assay type: biochemical, HIV-1
Settings: IC50 mut, mutant reverse transcriptase, enzymatic assay of Example 24
Protocol: The enzymatic assay employed is described as follows: The reverse transcriptase (RT) enzyme assay has been adapted to a 96-well microtiter plate format and uses PicoGreen™ as a fluorescent intercalator. More explicitly, the HIV-1 RT enzyme was thawed and appropriately diluted into Tris/HCl 50 mM pH 7.8 containing NaCl 60 mM, MgCl2.6H2O 2 mM, DTT 6 mM, GSH 2 mM and 0.02% w/v Chaps to give ≈10 nM enzyme. To 10 μL of this enzyme solution was added 10 μL of inhibitor solution (40 μM to 2.032 nM inhibitor in the same assay buffer as above containing 4% v/v DMSO). The plate was pre-incubated for 15 minutes at room temperature before proceeding to the next step. In this pre-incubation step, the highest and lowest inhibitor concentrations were 20 μM and 1.016 nM respectively and the concentration of DMSO was 2% v/v. Then the enzymatic reaction was initiated by addition of 20 μL of substrate solution. The final reaction mixture contained Tris/HCl 50 mM pH 7.8, NaCl 60 mM, MgCl2.6H2O 2 mM, DTT 6 mM, GSH 2 mM, CHAPS 0.02% w/v, DMSO 1% v/v, poly rC 45 nM, dG15 4.5 nM, dGTP 3.6 μM, and 2.5 nM enzyme. In this incubation step, the highest and lowest inhibitor concentrations were 10 μM and 0.508 nM respectively. After addition of the substrate cocktail, the plate was covered with a plastic seal and incubated for 50 minutes at 37° C. in a dry incubator. The reaction was then quenched by addition of 5 μL of EDTA 0.5 M. The plate was shaken for 30 seconds at medium speed and incubated for 5 minutes at room temperature. Then 160 μL of PicoGreen™ 1:400 dilution from commercial stock (diluted in Tris 20 mM pH 7.5 with EDTA 1 mM) was added and the plate was shaken for 30 seconds and incubated for 10 minutes at room temperature. The plate was then analyzed using a POLARstar Galaxy fluorometer (BMG Labtechnologies) with λex and λem of 485 nm and 520 nm respectively. Each well was read for 1.25 second. Each row contained at its extremities a blank and a control well.

## O=C(CSc1nnnn1-c1ccc(C2CC2)cc1Cl)Nc1ccc(-c2ccc(OCCN3CCCCC3)cc2)c(F)c1Cl [Compound 2051]
  IC50: 0.0305 µM

## CC(C)(C(=O)O)c1ccc(-c2ccc(NC(=O)CSc3nnnn3-c3ccc(C4CC4)cc3Cl)c(Cl)c2)cc1 [Compound 2052]
  IC50: 0.019 µM

## CC(C)c1ccc(-n2nnnc2SCC(=O)Nc2ccc(-c3ccc(OCCN4CCCC4)cc3)cc2Cl)c(Br)c1 [Compound 2053]
  IC50: 0.024 µM

## CC(C)c1ccc(-n2nnnc2SCC(=O)Nc2ccc(-c3ccc(C(C)(C)C(=O)O)cc3)cc2Cl)c(Cl)c1 [Compound 2055]
  IC50: 0.056 µM

## CC(C)c1ccc(-n2nnnc2SCC(=O)Nc2ccc(-c3ccc(OCCN4CCCC4)cc3)cc2Cl)c(Cl)c1 [Compound 2056]
  IC50: 0.029 µM

## O=C(CSc1nnnn1-c1ccc(C2CC2)cc1Cl)Nc1ccc(-c2ccc(OCCN3CCCC3)cc2)c(F)c1Cl [Compound 2057]
  IC50: 0.0088 µM

## O=C(CSc1nnnn1-c1cc(C(F)(F)F)ccc1Cl)Nc1ccc(-c2ccc(OCCN3CCCC3)cc2)c(F)c1Cl [Compound 2058]
  IC50: 0.025 µM

## O=C(CSc1nnnn1-c1ccc(C2CC2)cc1Cl)Nc1ccc(-c2ccc(OCCN3CCS(=O)(=O)CC3)cc2)c(F)c1Cl [Compound 2059]
  IC50: 0.013 µM

## COC(=O)c1cccc(-c2ccc(NC(=O)CSc3nnnn3-c3ccc(C)cc3Cl)c(Cl)c2)c1 [Compound 3001]
  IC50: 0.146 µM

## COC(=O)Cc1cccc(-c2ccc(NC(=O)CSc3nnnn3-c3ccc(C)cc3Cl)c(Cl)c2)c1 [Compound 3002]
  IC50: 0.12 µM

## Cc1ccc(-n2nnnc2SCC(=O)Nc2ccc(-c3cccc(C(=O)O)c3)cc2Cl)c(Cl)c1 [Compound 3003]
  IC50: 0.241 µM

## Cc1ccc(-n2nnnc2SCC(=O)Nc2ccc(-c3cccc(CC(=O)O)c3)cc2Cl)c(Cl)c1 [Compound 3004]
  IC50: 0.093 µM

## COC(=O)/C=C/c1ccc(NC(=O)CSc2nnnn2-c2ccc(C)cc2Cl)c(Cl)c1 [Compound 3005]
  IC50: 0.305 µM

## Cc1ccc(-n2nnnc2SCC(=O)Nc2ccc(/C=C/C(=O)O)cc2Cl)c(Cl)c1 [Compound 3006]
  IC50: 0.265 µM

## CNC(=O)c1ccc(NC(=O)CSc2nnnn2-c2ccc(C)cc2Cl)c(Cl)c1 [Compound 3007]
  IC50: 0.29 µM

## CCNC(=O)c1ccc(NC(=O)CSc2nnnn2-c2ccc(C)cc2Cl)c(Cl)c1 [Compound 3008]
  IC50: 0.3 µM

## CC(C)(C)c1ccc(-n2nnnc2SCC(=O)Nc2ccc(-c3ccc(OCC(=O)O)cc3Cl)cc2Cl)c(Cl)c1 [Compound 3009]
  IC50: 0.154 µM

## Cc1cc(-c2ccc(NC(=O)CSc3nnnn3-c3ccc(C(C)(C)C)cc3Cl)c(Cl)c2)ccc1OCC(=O)O [Compound 3010]
  IC50: 0.033 µM

## Cc1cc(OCC(=O)O)ccc1-c1ccc(NC(=O)CSc2nnnn2-c2ccc(C(C)(C)C)cc2Cl)c(Cl)c1 [Compound 3011]
  IC50: 0.34 µM

## CC(C)(C)c1ccc(-n2nnnc2SCC(=O)Nc2ccc(-c3ccc(OCC(=O)O)c(Cl)c3)cc2Cl)c(Cl)c1 [Compound 3013]
  IC50: 0.024 µM

## Cc1ccc(-n2nnnc2SCC(=O)Nc2ccc(-c3cscn3)cc2Cl)c(Cl)c1 [Compound 3014]
  IC50: 0.142 µM

## Cc1ccc(-n2nnnc2SCC(=O)Nc2ccc(-c3csc(N)n3)cc2Cl)c(Cl)c1 [Compound 3015]
  IC50: 0.185 µM

## Cc1ccc(-n2nnnc2SCC(=O)Nc2ccc(-c3cocn3)cc2Cl)c(Cl)c1 [Compound 3016]
  IC50: 0.359 µM

## Cc1ccc(-n2nnnc2SCC(=O)Nc2ccc(-c3coc(C)n3)cc2Cl)c(Cl)c1 [Compound 3017]
  IC50: 0.308 µM

## Cc1ccc(-n2nnnc2SCC(=O)Nc2ccc(-c3c[nH]cn3)cc2Cl)c(Cl)c1 [Compound 3018]
  IC50: 0.269 µM

## Cc1ccc(-n2nnnc2SCC(=O)Nc2ccc(-c3nnn[nH]3)cc2Cl)c(Cl)c1 [Compound 3019]
  IC50: 0.539 µM

## CC(C)(C)c1ccc(-n2nnnc2SCC(=O)Nc2ccc(-c3ccc(OCC(=O)O)cc3F)cc2Cl)c(Cl)c1 [Compound 3020]
  IC50: 0.023 µM

## CNS(=O)(=O)c1ccc(NC(=O)CSc2nnnn2-c2ccc(C(C)(C)C)cc2Cl)c(Cl)c1 [Compound 3021]
  IC50: 0.063 µM
